Test results from paper PMC6213020, “Identification of a Novel PPAR-γ Agonist through a Scaffold Tuning Approach” (International Journal of Molecular Sciences, 2018).

Key:
db/db mice = system: db/db mice; parameters: method as in PMID 21482466, PMID 23265886, PMID 25982078; conditions: cited from earlier work
PPAR-α = biological target: T1, PPAR-α (Homo sapiens, UniProt Q07869); test: cell-based PPAR transactivation (luciferase) assay, PPAR-α; conditions: 24 h; compounds 10 µM; relative to maximum activation with GW7647 (10 µM); PPAR-Luc in CV-1 cells; read-out: % max PPAR-α
T1 construct: host or cells: CV-1
T1 sequence (Q07869 1-468): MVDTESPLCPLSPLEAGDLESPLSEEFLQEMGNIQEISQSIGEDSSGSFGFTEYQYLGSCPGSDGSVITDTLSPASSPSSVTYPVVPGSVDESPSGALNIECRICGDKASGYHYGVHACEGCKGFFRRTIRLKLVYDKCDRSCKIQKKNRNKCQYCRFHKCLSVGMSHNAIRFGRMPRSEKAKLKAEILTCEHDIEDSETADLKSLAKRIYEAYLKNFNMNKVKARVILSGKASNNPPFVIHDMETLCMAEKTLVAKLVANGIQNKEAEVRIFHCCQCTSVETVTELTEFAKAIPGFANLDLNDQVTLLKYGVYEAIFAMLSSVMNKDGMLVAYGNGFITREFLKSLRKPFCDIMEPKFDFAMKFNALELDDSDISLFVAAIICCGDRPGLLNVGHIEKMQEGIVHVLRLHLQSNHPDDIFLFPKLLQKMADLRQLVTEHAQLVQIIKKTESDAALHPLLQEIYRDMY
Procedure: (§1) The PPAR activities of the synthesized dichloroanilide-linked indole analogs were assessed using a standard cell-based transactivation assay in CV-1 cells. GW7647 [42], pioglitazone, and GW0742 [43] were used as positive controls for PPAR-α, -γ, and -δ, respectively. These three positive controls presented the maximum activation for each PPAR subtype. The activity of the compounds was presented as the activation percentage (%) relative to the maximum values of the positive controls at the indicated concentrations.
(§2) Transient transfection and luciferase assay was carried out. CV-1 cells were seeded in 48-well plates at a density of 1.5 × 10^5 cells/well in Dulbecco’s modified Eagle’s medium (DMEM) with containing 10% fetal bovine serum (FBS). The cells were transiently transfected with plasmid mixtures containing PPAR-α/γ expression vector and tk-PPRE-luciferase (Luc) vector for 6 h and then treated with the samples for 24 h. HEK293t cells were seeded in a 60-mm dish at a density of 1.5 × 10^6 cells/dish. After transfection with the plasmid mixtures containing PPAR-δ expression vector and Luc vector for 6 h, the cells were transferred to a 96-well plate and treated with the samples. To normalize the transfection efficiency, a β-galactosidase plasmid was cotransfected. The luciferase activity in the cell lysates was measured using a luciferase assay system (Promega Corp., Madison, WI, USA), and the β-galactosidase activity was determined by measuring the absorbance at 410 nm using an ELISA plate reader. The data were expressed as the relative luciferase activity divided by the β-galactosidase activity. All constructs were kindly gifted by Dr. Ronald M. Evans at The Salk Institute (La Jolla, CA, USA).

PPAR-γ = biological target: T2, PPAR-γ (Homo sapiens, UniProt P37231); test: cell-based PPAR transactivation (luciferase) assay, PPAR-γ; conditions: for activation at 10 µM: 24 h, compounds 10 µM, relative to maximum activation with pioglitazone (10 µM), PPAR-Luc in CV-1 cells, read-out: % max PPAR-γ; for agonistic activity to PPARs, in words: transactivation assay, all PPAR subtypes
T2 construct: host or cells: CV-1
T2 sequence (P37231 1-505): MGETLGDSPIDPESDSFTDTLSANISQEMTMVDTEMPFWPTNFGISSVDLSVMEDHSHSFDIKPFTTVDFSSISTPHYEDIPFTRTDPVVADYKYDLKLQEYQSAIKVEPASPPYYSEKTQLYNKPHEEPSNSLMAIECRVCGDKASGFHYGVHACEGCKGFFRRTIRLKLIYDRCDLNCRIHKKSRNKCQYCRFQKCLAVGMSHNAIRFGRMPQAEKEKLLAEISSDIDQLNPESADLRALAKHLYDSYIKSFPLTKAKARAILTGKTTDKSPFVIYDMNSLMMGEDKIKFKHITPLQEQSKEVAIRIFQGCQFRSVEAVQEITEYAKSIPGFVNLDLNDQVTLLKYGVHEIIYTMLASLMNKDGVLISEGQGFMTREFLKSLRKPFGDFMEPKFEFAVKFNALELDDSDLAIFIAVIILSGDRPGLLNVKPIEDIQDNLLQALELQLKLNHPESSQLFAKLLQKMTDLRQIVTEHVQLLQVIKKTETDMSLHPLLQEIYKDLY
Procedure: as §1, §2

PPAR-δ = biological target: T3, PPAR-δ (Homo sapiens, UniProt Q03181); test: cell-based PPAR transactivation (luciferase) assay, PPAR-δ; conditions: compounds 10 µM; relative to maximum activation with GW0742 (10 μM); PPAR-Luc in HEK293t cells; read-out: % max PPAR-δ
T3 construct: host or cells: HEK293t
T3 sequence (Q03181 1-441): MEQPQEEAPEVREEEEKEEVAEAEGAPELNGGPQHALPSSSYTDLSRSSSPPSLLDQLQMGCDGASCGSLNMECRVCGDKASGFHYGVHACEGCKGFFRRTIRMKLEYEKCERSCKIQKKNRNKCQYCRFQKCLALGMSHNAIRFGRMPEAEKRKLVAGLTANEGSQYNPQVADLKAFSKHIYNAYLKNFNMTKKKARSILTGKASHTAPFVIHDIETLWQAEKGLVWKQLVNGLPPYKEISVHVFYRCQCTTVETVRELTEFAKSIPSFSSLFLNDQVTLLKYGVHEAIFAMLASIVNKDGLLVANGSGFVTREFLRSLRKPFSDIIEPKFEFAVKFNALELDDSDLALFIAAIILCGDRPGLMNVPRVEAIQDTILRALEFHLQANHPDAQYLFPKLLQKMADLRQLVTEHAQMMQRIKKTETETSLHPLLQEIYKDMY
Procedure: as §1, §2

Structure (SMILES) | activation at 10 µM (PPAR-α) [%] | activation at 10 µM (PPAR-γ) [%] | agonistic activity to PPARs, in words (PPAR-γ) | activation at 10 µM (PPAR-δ) [%] | accumulation of lipids and size of the adipocytes (db/db mice) | blood glucose level (db/db mice) | glycated hemoglobin (HbA1c) level (db/db mice) | insulin level (db/db mice) | weight gain (db/db mice)
O=C(O)Cc1cn(Cc2ccccc2)c2ccc(OCCCOc3cccc(OCc4ccc(Cl)cc4)c3)cc12 [Compound 2] | – | – | – | – | reduced | lowered | lowered | lowered | without causing weight gain
O=C(O)Cc1c[nH]c2ccc(OCC(=O)Nc3ccc(Cl)cc3Cl)cc12 [Compound 5, 2-(5-(2-((2,4-Dichlorophenyl)amino)-2-oxoethoxy)-1H-indol-3-yl)acetic acid] | -38.13 ± 0.06 | 5.6 ± 0.14 | minimum agonistic activities | 11.8 ± 0.35 | – | – | – | – | –
O=C(O)Cc1cn(Cc2ccccc2)c2ccc(OCC(=O)Nc3ccc(Cl)cc3Cl)cc12 [Compound 7, 2-(1-Benzyl-5-(2-((2,4-dichlorophenyl)amino)-2-oxoethoxy)-1H-indol-3-yl)acetic acid] | 21.41 ± 0.21 | 31.2 ± 0.38 | – | 44.4 ± 0.77 | – | – | – | – | –
O=C(COc1ccc2c(ccn2Cc2ccc(C(=O)O)cc2)c1)Nc1ccc(Cl)cc1Cl [Compound 16, 4-((5-(2-((2,4-Dichlorophenyl)amino)-2-oxoethoxy)-1H-indol-1-yl)methyl)benzoic acid] | -19.98 ± 0.08 | 0.29 ± 0.06 | – | -1.07 ± 0.14 | – | – | – | – | –
O=C(COc1ccc2ccn(Cc3ccc(C(=O)O)cc3)c2c1)Nc1ccc(Cl)cc1Cl [Compound 17, 4-((6-(2-((2,4-Dichlorophenyl)amino)-2-oxoethoxy)-1H-indol-1-yl)methyl)benzoic acid] | -14.4 ± 0.16 | -0.84 ± 0.16 | – | 4.87 ± 0.24 | – | – | – | – | –

Further lines, with some results ahead:

activation at 10 µM (PPAR-α) [%] | activation at 10 µM (PPAR-γ) [%] | agonistic activity to PPARs, in words (PPAR-γ) | activation at 10 µM (PPAR-δ) [%] | Structure (SMILES) | accumulation of lipids and size of the adipocytes (db/db mice) | blood glucose level (db/db mice) | glycated hemoglobin (HbA1c) level (db/db mice) | insulin level (db/db mice) | weight gain (db/db mice)
1.12 ± 0.24 | 8.66 ± 0.23 | minimum agonistic activities | 8.27 ± 0.33 | O=C(O)Cc1c[nH]c2cc(OCC(=O)Nc3ccc(Cl)cc3Cl)ccc12 [Compound 6, 2-(6-(2-((2,4-Dichlorophenyl)amino)-2-oxoethoxy)-1H-indol-3-yl)acetic acid] | – | – | – | – | –
31.68 ± 0.22 | 71.9 ± 0.91 | – | 65.4 ± 0.7 | O=C(O)Cc1cn(Cc2ccccc2)c2cc(OCC(=O)Nc3ccc(Cl)cc3Cl)ccc12 [Compound 8, 2-(1-Benzyl-6-(2-((2,4-dichlorophenyl)amino)-2-oxoethoxy)-1H-indol-3-yl)acetic acid] | – | – | – | – | –
10.33 ± 0.07 | 42 ± 0.52 | – | 23.9 ± 0.51 | O=C(COc1ccc2c(ccn2Cc2cccc(C(=O)O)c2)c1)Nc1ccc(Cl)cc1Cl [Compound 14, 3-((5-(2-((2,4-Dichlorophenyl)amino)-2-oxoethoxy)-1H-indol-1-yl)methyl)benzoic acid] | – | – | – | – | –
7.25 ± 0.12 | 19.03 ± 0.13 | – | 19.4 ± 0.54 | O=C(COc1ccc2c(Cc3ccccc3)cn(Cc3ccccc3C(=O)O)c2c1)Nc1ccc(Cl)cc1Cl [Compound 19, 2-((3-Benzyl-6-(2-((2,4-dichlorophenyl)amino)-2-oxoethoxy)-1H-indol-1-yl)methyl)benzoic acid] | – | – | – | – | –
-5.93 ± 0.14 | 5.1 ± 0.2 | – | 8.92 ± 0.48 | CC(C)=CCc1cn(Cc2ccccc2C(=O)O)c2ccc(OCC(=O)Nc3ccc(Cl)cc3Cl)cc12 [Compound 20, 2-((5-(2-((2,4-Dichlorophenyl)amino)-2-oxoethoxy)-3-(3-methylbut-2-en-1-yl)-1H-indol-1-yl)methyl)benzoic acid] | – | – | – | – | –
-2.3 ± 0.19 | 9.55 ± 0.32 | – | 22.2 ± 0.59 | CC(C)=CCc1cn(Cc2ccccc2C(=O)O)c2cc(OCC(=O)Nc3ccc(Cl)cc3Cl)ccc12 [Compound 21, 2-((6-(2-((2,4-Dichlorophenyl)amino)-2-oxoethoxy)-3-(3-methylbut-2-en-1-yl)-1H-indol-1-yl)methyl)benzoic acid] | – | – | – | – | –
